# In patent US9540391B2, “Isomannide derivatives as inhibitors of soluble epoxide hydrolase” (SANOFI, priority 2013, dated 2017):
# Where a name gives a salt, the structure may show the parent alone.
# Target: T1, recombinant sEH (Homo sapiens, UniProt P34913)
# T1 construct: made in house; host or cells: Sf9 insect cells
# T1 sequence (P34913 1-555): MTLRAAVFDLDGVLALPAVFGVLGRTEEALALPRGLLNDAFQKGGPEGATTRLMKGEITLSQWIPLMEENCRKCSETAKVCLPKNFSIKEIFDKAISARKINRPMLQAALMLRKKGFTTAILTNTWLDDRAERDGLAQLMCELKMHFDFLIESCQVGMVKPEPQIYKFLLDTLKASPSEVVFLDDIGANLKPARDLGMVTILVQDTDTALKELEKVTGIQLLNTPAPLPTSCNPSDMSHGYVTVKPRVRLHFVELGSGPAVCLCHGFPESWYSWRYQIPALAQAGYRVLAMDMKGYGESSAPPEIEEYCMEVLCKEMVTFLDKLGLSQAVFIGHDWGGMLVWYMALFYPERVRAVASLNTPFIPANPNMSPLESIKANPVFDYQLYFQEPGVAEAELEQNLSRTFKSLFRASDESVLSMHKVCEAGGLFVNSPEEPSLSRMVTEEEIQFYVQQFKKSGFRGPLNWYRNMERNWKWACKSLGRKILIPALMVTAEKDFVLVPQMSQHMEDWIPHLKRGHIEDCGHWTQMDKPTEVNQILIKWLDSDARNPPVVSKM
# Assay: biochemical screening assay for inhibition of soluble epoxide hydrolase (fluorometric, Phome substrate)
# Method in brief: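 Human sEH from Sf9 cells (2 nM final) was pre-incubated 15 min at 30 °C with compound (0.0001–10 μM), then reacted 60 min at 30 °C with 5 μM Phome in 25 mM Hepes/0.01% albumin. Fluorescence of released 6-methoxy-2-naphthaldehyde was read before substrate and at end; IC50 from % inhibition.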
row,IC50,Compound
1,3 nM,"O=C(NC1CCCCC1)N[C@H]1CO[C@H]2[C@@H]1OC[C@@H]2/C=C\c1ccc2c(c1)OCO2 [Example 317, 1-[(3S,3aR,6S,6aR)-6-((Z)-2-Benzo[1,3]dioxol-5-yl-vinyl)-hexahydro-furo[3,2-b]furan-3-yl]-3-cyclohexyl-urea]"
2,227 nM,"O=C(Nc1ccc2c(c1)OCCO2)N[C@H]1CO[C@H]2[C@@H]1OC[C@@H]2/C=C\c1ccccc1 [Example 318, 1-(2,3-Dihydro-benzo[1,4]dioxin-6-yl)-3-[(3S,3aR,6S,6aR)-6-((Z)-styryl)-hexahydro-furo[3,2-b]furan-3-yl]-urea]"
3,17 nM,"O=C(NC1CCCCC1)N[C@H]1CO[C@H]2[C@@H]1OC[C@@H]2/C=C\c1ccccc1 [Example 319, 1-Cyclohexyl-3-[(3S,3aR,6S,6aR)-6-((Z)-styryl)-hexahydro-furo[3,2-b]furan-3-yl]-urea]"
4,66 nM,"COc1cc(NC(=O)NC2COC3C(C=Cc4ccccc4)COC23)cc(OC)c1 [Example 321, 1-(3,5-Dimethoxy-phenyl)-3-[(3S,3aR,6R)-6-((S)-(Z)-styryl)-hexa-hydro-furo[3,2-b]furan-3-yl]-urea]"
5,7 nM,"Cc1cc(C)cc(NC(=O)NC2COC3C(C=Cc4ccccc4)COC23)c1 [Example 322, 1-(3,5-Dimethyl-phenyl)-3-[(3S,3aR,6R)-6-((S)-(Z)-styryl)-hexa-hydro-furo[3,2-b]furan-3-yl]-urea]"
6,190 nM,"O=C(Nc1ccccc1)NC1COC2C(C=Cc3ccccc3)COC12 [Example 323, 1-Phenyl-3-[(3S,3aR,6R)-6-((S)-(Z)-styryl)-hexahydro-furo[3,2-b]furan-3-yl]-urea]"
7,81 nM,"O=C(Nc1ccc(OCc2ccccc2)cc1)NC1COC2C(C=Cc3ccccc3)COC12 [Example 324, 1-(4-Benzyloxy-phenyl)-3-[(3S,3aR,6R)-6-((S)-(Z)-styryl)-hexa-hydro-furo[3,2-b]furan-3-yl]-urea]"
8,75 nM,"O=C(NCc1ccc(F)cc1)NC1COC2C(C=Cc3ccccc3)COC12 [Example 325, 1-(4-Fluoro-benzyl)-3-[(3S,3aR,6R)-6-((S)-(Z)-styryl)-hexahydro-furo[3,2-b]furan-3-yl]-urea]"
9,27 nM,"O=C(Nc1ccc(Cl)c(Cl)c1)NC1COC2C(C=Cc3ccccc3)COC12 [Example 326, 1-(3,4-Dichloro-phenyl)-3-[(3S,3aR,6R)-6-((S)-(Z)-styryl)-hexa-hydro-furo[3,2-b]furan-3-yl]-urea]"
10,98 nM,"Cc1cccc(CNC(=O)N[C@H]2CO[C@@H]3[C@@H]2OC[C@H]3/C=C\c2ccccc2)c1 [Example 327, 1-(3-Methyl-benzyl)-3-[(3S,3aR,6R)-6-((S)-(Z)-styryl)-hexahydro-furo[3,2-b]furan-3-yl]-urea]"
11,98 nM,"O=C(Nc1ccc(F)cc1)NC1COC2C(C=Cc3ccccc3)COC12 [Example 328, 1-(4-Fluoro-phenyl)-3-[(3S,3aR,6R)-6-((S)-(Z)-styryl)-hexahydro-furo[3,2-b]furan-3-yl]-urea]"
12,95 nM,"O=C(Nc1cccc(F)c1)N[C@H]1CO[C@H]2[C@@H]1OC[C@@H]2/C=C\c1ccccc1 [Example 329, 1-(3-Fluoro-phenyl)-3-[(3S,3aR,6S,6aR)-6-((Z)-styryl)-hexahydro-furo[3,2-b]furan-3-yl]-urea]"
13,69 nM,"O=C(NCCc1cccs1)N[C@H]1CO[C@H]2[C@@H]1OC[C@@H]2/C=C\c1ccccc1 [Example 330, 1-[(3S,3aR,6S,6aR)-6-((Z)-Styryl)-hexahydro-furo[3,2-b]furan-3-yl]-3-(2-thiophen-2-yl-ethyl)-urea]"
14,18 nM,"O=C(NCCc1ccccc1)N[C@H]1CO[C@H]2[C@@H]1OC[C@@H]2/C=C\c1ccccc1 [Example 331, 1-Phenethyl-3-[(3S,3aR,6S,6aR)-6-((Z)-styryl)-hexahydro-furo[3,2-b]furan-3-yl]-urea]"
15,11 nM,"O=C(Nc1ccc(OC(F)(F)F)cc1)N[C@H]1CO[C@H]2[C@@H]1OC[C@@H]2/C=C\c1ccccc1 [Example 332, 1-[(3S,3aR,6S,6aR)-6-((Z)-Styryl)-hexahydro-furo[3,2-b]furan-3-yl]-3-(4-trifluoromethoxy-phenyl)-urea]"
16,44 nM,"O=C(Nc1cccc(C(F)(F)F)c1)N[C@H]1CO[C@H]2[C@@H]1OC[C@@H]2/C=C\c1ccccc1 [Example 333, 1-[(3S,3aR,6S,6aR)-6-((Z)-Styryl)-hexahydro-furo[3,2-b]furan-3-yl]-3-(3-trifluoromethyl-phenyl)-urea]"

row,IC50,Compound
1,159 nM,"O=C(NC1CCCCC1)N[C@H]1CO[C@H]2[C@@H]1OC[C@@H]2/C=C\c1ccccn1 [Example 334, 1-Cyclohexyl-3-[(3S,3aR,6S,6aR)-6-((Z)-2-pyridin-2-yl-vinyl)-hexahydro-furo[3,2-b]furan-3-yl]-urea; trifluoroacetate]"
2,665 nM,"COc1cc(NC(=O)NC2COC3C(C=Cc4ccsc4)COC23)cc(OC)c1 [Example 335, 1-(3,5-Dimethoxy-phenyl)-3-[(3S,3aR,-6S,6aR)-6-((Z)-2-thiophen-3-yl-vinyl)-hexahydro-furo[3,2-b]furan-3-yl]-urea]"
3,47 nM,"Cc1cc(C)cc(NC(=O)NC2COC3C(C=Cc4ccsc4)COC23)c1 [Example 336, 1-(3,5-Dimethyl-phenyl)-3-[(3S,3aR,6S,-6aR)-6-((Z)-2-thiophen-3-yl-vinyl)-hexahydro-furo[3,2-b]furan-3-yl]-urea]"
4,423 nM,"O=C(Nc1ccccc1)N[C@H]1CO[C@H]2[C@@H]1OC[C@@H]2/C=C\c1ccsc1 [Example 337, 1-Phenyl-3-[(3S,3aR,6S,6aR)-6-((Z)-2-thiophen-3-yl-vinyl)-hexahydro-furo[3,2-b]furan-3-yl]-urea]"
5,392 nM,"O=C(NCc1ccc(F)cc1)N[C@H]1CO[C@H]2[C@@H]1OC[C@@H]2/C=C\c1ccsc1 [Example 338, 1-(4-Fluoro-benzyl)-3-[(3S,3aR,6S,6aR)-6-((Z)-2-thiophen-3-yl-vinyl)-hexahydro-furo[3,2-b]furan-3-yl]-urea]"
6,418 nM,"Cc1cccc(CNC(=O)N[C@H]2CO[C@H]3[C@@H]2OC[C@@H]3/C=C\c2ccsc2)c1 [Example 339, 1-(3-Methyl-benzyl)-3-[(3S,3aR,6S,6aR)-6-((Z)-2-thiophen-3-yl-vinyl)-hexahydro-furo[3,2-b]furan-3-yl]-urea]"
7,89 nM,"O=C(Nc1ccc(F)cc1)N[C@H]1CO[C@H]2[C@@H]1OC[C@@H]2/C=C\c1ccsc1 [Example 340, 1-(4-Fluoro-phenyl)-3-[(3S,3aR,6S,6aR)-6-((Z)-2-thiophen-3-yl-vinyl)-hexahydro-furo[3,2-b]furan-3-yl]-urea]"
8,90 nM,"O=C(Nc1ccc2c(c1)CCC2)N[C@H]1CO[C@H]2[C@@H]1OC[C@@H]2/C=C\c1ccsc1 [Example 341, 1-Indan-5-yl-3-[(3S,3aR,6S,6aR)-6-((Z)-2-thiophen-3-yl-vinyl)-hexa-hydro-furo[3,2-b]furan-3-yl]-urea]"
9,17 nM,"O=C(Nc1ccc(C(F)(F)F)cc1)NC1COC2C(C=Cc3ccsc3)COC12 [Example 342, 1-[(3S,3aR,6S,6aR)-6-((Z)-2-Thio-phen-3-yl-vinyl)-hexahydro-furo[3,2-b]furan-3-yl]-3-(4-trifluoromethyl-phenyl)-urea]"
10,102 nM,"COC(=O)c1cccc(NC(=O)N[C@H]2CO[C@H]3[C@@H]2OC[C@@H]3/C=C\c2ccsc2)c1 [Example 343, 3-{3-[(3S,3aR,6S,6aR)-6-((Z)-2-Thiophen-3-yl-vinyl)-hexahydro-furo[3,2-b]furan-3-yl]-ureido}-benzoic acid methyl ester]"
11,42 nM,"O=C(NCCc1ccccc1)N[C@H]1CO[C@H]2[C@@H]1OC[C@@H]2/C=C\c1ccsc1 [Example 344, 1-Phenethyl-3-[(3S,3aR,6S,6aR)-6-((Z)-2-thiophen-3-yl-vinyl)-hexa-hydro-furo[3,2-b]furan-3-yl]-urea]"
12,11 nM,"O=C(Nc1ccc(OC(F)(F)F)cc1)N[C@H]1CO[C@H]2[C@@H]1OC[C@@H]2/C=C\c1ccsc1 [Example 345, 1-[(3S,3aR,6S,6aR)-6-((Z)-2-Thiophen-3-yl-vinyl)-hexahydro-furo[3,2-b]furan-3-yl]-3-(4-trifluoromethoxy-phenyl)-urea]"
13,62 nM,"O=C(Nc1cccc(C(F)(F)F)c1)N[C@H]1CO[C@H]2[C@@H]1OC[C@@H]2/C=C\c1ccsc1 [Example 346, 1-[(3S,3aR,6S,6aR)-6-((Z)-2-Thiophen-3-yl-vinyl)-hexahydro-furo[3,2-b]furan-3-yl]-3-(3-trifluoromethyl-phenyl)-urea]"
14,128 nM,"O=C(NC1CCCCC1)N[C@H]1CO[C@@H]2[C@@H](CCc3ccc4c(c3)OCO4)CO[C@@H]21 [Example 347, 1-[(3S,3aR,6S,6aR)-6-(2-benzo[1,3]dioxol-5-yl-ethyl)-hexahydro-furo[3,2-b]furan-3-yl]-3-cyclohexyl-urea]"
15,229 nM,"O=C(Nc1ccc2c(c1)OCO2)NC1COC2C(CCc3ccccc3)COC12 [Example 348, 1-Benzo[1,3]dioxol-5-yl-3-((3S,3aR,6S,-6aR)-6-phenethyl-hexahydro-furo[3,2-b]furan-3-yl)-urea]"

row,Compound,IC50
1,"CCCCOc1ccc(NC(=O)NC2COC3C(C=Cc4ccccc4)COC23)cc1 [Example 320, 1-(4-Butoxy-phenyl)-3-[(3S,3aR,6R)-6-((S)-(Z)-styryl)-hexahydro-furo[3,2-b]furan-3-yl]-urea]",140 nM
